Legend:
HOP-62 [1] = experiment: Cytotoxicity against human HOP62 cells assessed as age growth inhibition at 10 uM after 48 hrs by sulforhodamine B assay; format: functional; details: HOP-62, 48 h, read-out: GI
HOP-62 [2] = experiment: Cytotoxicity against human HOP62 cells assessed as age growth inhibition at 50 uM after 48 hrs by sulforhodamine B assay; format: functional; details: HOP-62, 48 h, read-out: GI
SF-295 [3] = experiment: Cytotoxicity against human SF295 cells assessed as age growth inhibition at 50 uM after 48 hrs by sulforhodamine B assay; format: functional; details: SF-295, 48 h, read-out: GI
IGROV-1 [4] = experiment: Antiproliferative activity against human IGROV1 cells after 48 hrs by sulforhodamine B assay; format: functional, cell-based; details: IGROV-1, 48 h
DU-145 [5] = experiment: Cytotoxicity against human DU145 cells assessed as age growth inhibition at 50 uM after 48 hrs by sulforhodamine B assay; format: functional; details: DU-145, 48 h, read-out: GI
HOP-62 [6] = experiment: Cytotoxicity against human HOP62 cells assessed as age growth inhibition at 100 uM after 48 hrs by sulforhodamine B assay; format: functional; details: HOP-62, 48 h, read-out: GI
HEp-2 [7] = experiment: Cytotoxicity against human HEP2 cells assessed as age growth inhibition at 50 uM after 48 hrs by sulforhodamine B assay; format: functional; details: HEp-2, 48 h, read-out: GI
HCT-15 [8] = experiment: Antiproliferative activity against human HCT15 cells after 48 hrs by sulforhodamine B assay; format: functional, cell-based; details: HCT-15, 48 h
SK-OV-3 [9] = experiment: Cytotoxicity against human SKOV3 cells assessed as age growth inhibition at 10 uM after 48 hrs by sulforhodamine B assay; format: functional; details: SK-OV-3, 48 h, read-out: GI
SF-295 [10] = experiment: Cytotoxicity against human SF295 cells assessed as age growth inhibition at 100 uM after 48 hrs by sulforhodamine B assay; format: functional; details: SF-295, 48 h, read-out: GI
SF-295 [11] = experiment: Cytotoxicity against human SF295 cells assessed as age growth inhibition at 10 uM after 48 hrs by sulforhodamine B assay; format: functional; details: SF-295, 48 h, read-out: GI
HEp-2 [12] = experiment: Antiproliferative activity against human HEP2 cells after 48 hrs by sulforhodamine B assay; format: functional, cell-based; details: HEp-2, 48 h
HCT-15 [13] = experiment: Cytotoxicity against human HCT15 cells assessed as age growth inhibition at 50 uM after 48 hrs by sulforhodamine B assay; format: functional; details: HCT-15, 48 h, read-out: GI
DU-145 [14] = experiment: Cytotoxicity against human DU145 cells assessed as age growth inhibition at 10 uM after 48 hrs by sulforhodamine B assay; format: functional; details: DU-145, 48 h, read-out: GI
HEp-2 [15] = experiment: Cytotoxicity against human HEP2 cells assessed as age growth inhibition at 10 uM after 48 hrs by sulforhodamine B assay; format: functional; details: HEp-2, 48 h, read-out: GI
DU-145 [16] = experiment: Antiproliferative activity against human DU145 cells after 48 hrs by sulforhodamine B assay; format: functional, cell-based; details: DU-145, 48 h
HCT-15 [17] = experiment: Cytotoxicity against human HCT15 cells assessed as age growth inhibition at 100 uM after 48 hrs by sulforhodamine B assay; format: functional; details: HCT-15, 48 h, read-out: GI
SK-OV-3 [18] = experiment: Antiproliferative activity against human SKOV3 cells after 48 hrs by sulforhodamine B assay; format: functional, cell-based; details: SK-OV-3, 48 h
IGROV-1 [19] = experiment: Cytotoxicity against human IGROV1 cells assessed as age growth inhibition at 100 uM after 48 hrs by sulforhodamine B assay; format: functional; details: IGROV-1, 48 h, read-out: GI
A549 [20] = experiment: Cytotoxicity against human A549 cells assessed as age growth inhibition at 50 uM after 48 hrs by sulforhodamine B assay; format: functional; details: A549, 48 h, read-out: GI
SF-295 [21] = experiment: Antiproliferative activity against human SF295 cells after 48 hrs by sulforhodamine B assay; format: functional, cell-based; details: SF-295, 48 h
COLO 205 [22] = experiment: Cytotoxicity against human COLO205 cells assessed as age growth inhibition at 100 uM after 48 hrs by sulforhodamine B assay; format: functional; details: COLO 205, 48 h, read-out: GI
HCT-15 [23] = experiment: Cytotoxicity against human HCT15 cells assessed as age growth inhibition at 10 uM after 48 hrs by sulforhodamine B assay; format: functional; details: HCT-15, 48 h, read-out: GI
IGROV-1 [24] = experiment: Cytotoxicity against human IGROV1 cells assessed as age growth inhibition at 50 uM after 48 hrs by sulforhodamine B assay; format: functional; details: IGROV-1, 48 h, read-out: GI
COLO 205 [25] = experiment: Cytotoxicity against human COLO205 cells assessed as age growth inhibition at 10 uM after 48 hrs by sulforhodamine B assay; format: functional; details: COLO 205, 48 h, read-out: GI
A549 [26] = experiment: Cytotoxicity against human A549 cells assessed as age growth inhibition at 100 uM after 48 hrs by sulforhodamine B assay; format: functional; details: A549, 48 h, read-out: GI
COLO 205 [27] = experiment: Antiproliferative activity against human COLO205 cells after 48 hrs by sulforhodamine B assay; format: functional, cell-based; details: COLO 205, 48 h
A549 [28] = experiment: Antiproliferative activity against human A549 cells after 48 hrs by sulforhodamine B assay; format: functional, cell-based; details: A549, 48 h
COLO 205 [29] = experiment: Cytotoxicity against human COLO205 cells assessed as age growth inhibition at 50 uM after 48 hrs by sulforhodamine B assay; format: functional; details: COLO 205, 48 h, read-out: GI
SK-OV-3 [30] = experiment: Cytotoxicity against human SKOV3 cells assessed as age growth inhibition at 100 uM after 48 hrs by sulforhodamine B assay; format: functional; details: SK-OV-3, 48 h, read-out: GI
SK-OV-3 [31] = experiment: Cytotoxicity against human SKOV3 cells assessed as age growth inhibition at 50 uM after 48 hrs by sulforhodamine B assay; format: functional; details: SK-OV-3, 48 h, read-out: GI
A549 [32] = experiment: Cytotoxicity against human A549 cells assessed as age growth inhibition at 10 uM after 48 hrs by sulforhodamine B assay; format: functional; details: A549, 48 h, read-out: GI
HOP-62 [33] = experiment: Antiproliferative activity against human HOP62 cells after 48 hrs by sulforhodamine B assay; format: functional, cell-based; details: HOP-62, 48 h
HEp-2 [34] = experiment: Cytotoxicity against human HEP2 cells assessed as age growth inhibition at 100 uM after 48 hrs by sulforhodamine B assay; format: functional; details: HEp-2, 48 h, read-out: GI
DU-145 [35] = experiment: Cytotoxicity against human DU145 cells assessed as age growth inhibition at 100 uM after 48 hrs by sulforhodamine B assay; format: functional; details: DU-145, 48 h, read-out: GI
IGROV-1 [36] = experiment: Cytotoxicity against human IGROV1 cells assessed as age growth inhibition at 10 uM after 48 hrs by sulforhodamine B assay; format: functional; details: IGROV-1, 48 h, read-out: GI

Work on `COc1ccc([C@H]2OC(=O)[C@@H]3C=C4C(C)(C)CCC[C@]4(C)[C@H]23)cc1` yielded an inhibition of growth at 10 µM (HOP-62 [1]) of 10%, an inhibition of growth at 50 µM (HOP-62 [2]) of 30% and an inhibition of growth at 50 µM (SF-295 [3]) of 16%. It also gave an IC50 (IGROV-1 [4]) of 94.2 µM, an inhibition of growth at 50 µM (DU-145 [5]) of 12% and an inhibition of growth at 100 µM (HOP-62 [6]) of 52%. It also gave an inhibition of growth at 50 µM (HEp-2 [7]) of 23%, an IC50 (HCT-15 [8]) of 77.1 µM and an inhibition of growth at 10 µM (SK-OV-3 [9]) of 0%. It also gave an inhibition of growth at 100 µM (SF-295 [10]) of 16%, an inhibition of growth at 10 µM (SF-295 [11]) of 0% and an IC50 (HEp-2 [12]) of over 100 µM. For the same compound, the inhibition of growth at 50 µM (HCT-15 [13]) was 45%, the inhibition of growth at 10 µM (DU-145 [14]) was 8% and the inhibition of growth at 10 µM (HEp-2 [15]) was 3%. It also gave an IC50 (DU-145 [16]) of over 100 µM, an inhibition of growth at 100 µM (HCT-15 [17]) of 55% and an IC50 (SK-OV-3 [18]) of over 100 µM. It also gave an inhibition of growth at 100 µM (IGROV-1 [19]) of 51%, an inhibition of growth at 50 µM (A549 [20]) of 31% and an IC50 (SF-295 [21]) of over 100 µM. The inhibition of growth at 100 µM (COLO 205 [22]) was 52%, the inhibition of growth at 10 µM (HCT-15 [23]) was 16% and the inhibition of growth at 50 µM (IGROV-1 [24]) was 30%. The inhibition of growth at 10 µM (COLO 205 [25]) was 0%, the inhibition of growth at 100 µM (A549 [26]) was 55% and the IC50 (COLO 205 [27]) was 99.2 µM. The IC50 (A549 [28]) was 89.1 µM, the inhibition of growth at 50 µM (COLO 205 [29]) was 15% and the inhibition of growth at 100 µM (SK-OV-3 [30]) was 21%. The inhibition of growth at 50 µM (SK-OV-3 [31]) was 0%, the inhibition of growth at 10 µM (A549 [32]) was 8% and the IC50 (HOP-62 [33]) was 94.8 µM. For the same compound, the inhibition of growth at 100 µM (HEp-2 [34]) was 27%, the inhibition of growth at 100 µM (DU-145 [35]) was 43% and the inhibition of growth at 10 µM (IGROV-1 [36]) was 3%.

Compound `COc1cccc2c1C(=O)c1c(O)c3c(c(O)c1C2=O)C[C@@](O)(C(=O)CO)C[C@@H]3O[C@H]1C[C@H](N)[C@H](O)[C@H](C)O1` [DOXORUBICIN] has an inhibition of growth at 10 µM (HOP-62 [1]) of 69%, an inhibition of growth at 10 µM (SF-295 [11]) of 54% and an inhibition of growth at 10 µM (DU-145 [14]) of 64%. The inhibition of growth at 10 µM (HCT-15 [23]) was 54% and the inhibition of growth at 10 µM (A549 [32]) was 47%.

In the case of `CO[C@@]12[C@H](COC(N)=O)C3=C(C(=O)C(C)=C(N)C3=O)N1C[C@@H]1N[C@@H]12` [MITOMYCIN], the inhibition of growth at 10 µM (DU-145 [14]) is reported as 63% and the inhibition of growth at 10 µM (A549 [32]) is reported as 55%.

Work on `CC(=O)O[C@H]1C(=O)[C@@]2(C)[C@H]([C@H](OC(=O)c3ccccc3)[C@]3(O)C[C@H](OC(=O)[C@H](O)[C@@H](NC(=O)c4ccccc4)c4ccccc4)C(C)=C1C3(C)C)[C@]1(OC(C)=O)CO[C@@H]1C[C@@H]2O` [PACLITAXEL] yielded an inhibition of growth at 10 µM (HOP-62 [1]) of 26%, an inhibition of growth at 10 µM (SF-295 [11]) of 22% and an inhibition of growth at 10 µM (DU-145 [14]) of 52%. The inhibition of growth at 10 µM (HEp-2 [15]) was 29%, the inhibition of growth at 10 µM (HCT-15 [23]) was 40% and the inhibition of growth at 10 µM (COLO 205 [25]) was 9%. The inhibition of growth at 10 µM (A549 [32]) was 40% and the inhibition of growth at 10 µM (IGROV-1 [36]) was 15%.

From ChEMBL document CHEMBL1140040, “Synthesis and cytotoxic activity of some novel polycyclic gamma-butyrolactones” (Bioorg Med Chem Lett, 2008)
